Laboratory results from PubChem BioAssay (NCI).
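In this assay, cells in 96-well plates receive the compound at five concentrations for 48 hours. Endpoints are linearly interpolated between the surrounding concentrations. Here, GI50 denotes the concentration required for 50% inhibition of growth. Definition used: TGI = concentration required for complete inhibition of growth.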

Key:
Assay in all cases: NCI-60 cell line screen, 48 h
[1] = test system: 786-0 renal
[2] = test system: A498 renal
[3] = test system: A549 NSCLC
[4] = test system: ACHN renal
[5] = test system: BT-549 breast
[6] = test system: CAKI-1 renal
[7] = test system: CCRF-CEM leukemia
[8] = test system: COLO 205 colon
[9] = test system: DU-145 prostate
[10] = test system: EKVX NSCLC
[11] = test system: HCC-2998 colon
[12] = test system: HCT-116 colon
[13] = test system: HCT-15 colon
[14] = test system: HL-60(TB) leukemia
[15] = test system: HOP-62 NSCLC
[16] = test system: HOP-92 NSCLC
[17] = test system: HS 578T breast
[18] = test system: HT29 colon
[19] = test system: IGROV1 ovarian
[20] = test system: K-562 leukemia
[21] = test system: KM12 colon
[22] = test system: LOX IMVI melanoma
[23] = test system: M14 melanoma
[24] = test system: MALME-3M melanoma
[25] = test system: MCF7 breast
[26] = test system: MDA-MB-231 breast
[27] = test system: MOLT-4 leukemia
[28] = test system: NCI-H226 lung
[29] = test system: NCI-H23 lung
[30] = test system: NCI-H460 lung
[31] = test system: NCI-H522 lung
[32] = test system: NCI/ADR-RES ovarian
[33] = test system: OVCAR-3 ovarian
[34] = test system: OVCAR-4 ovarian
[35] = test system: OVCAR-5 ovarian
[36] = test system: OVCAR-8 ovarian
[37] = test system: PC-3 prostate
[38] = test system: RPMI-8226 leukemia
[39] = test system: RXF 393 renal
[40] = test system: SF-268 CNS
[41] = test system: SF-295 CNS
[42] = test system: SF-539 CNS
[43] = test system: SK-MEL-2 melanoma
[44] = test system: SK-MEL-28 melanoma
[45] = test system: SK-MEL-5 melanoma
[46] = test system: SK-OV-3 ovarian
[47] = test system: SN12C renal
[48] = test system: SNB-19 CNS
[49] = test system: SNB-75 CNS
[50] = test system: SR leukemia
[51] = test system: SW-620 colon
[52] = test system: T-47D breast
[53] = test system: TK-10 renal
[54] = test system: U251 CNS
[55] = test system: UACC-257 melanoma
[56] = test system: UACC-62 melanoma
[57] = test system: UO-31 renal

## N#Cc1ccc(/C=N/NC(=O)c2[nH]c3ccc(Br)cc3c2-c2ccccc2)s1
[1]
  GI50: 395 nM
  TGI: 13200 nM
[2]
  GI50: 6540 nM
  TGI: 22500 nM
[3]
  GI50: 379 nM
  TGI: 13000 nM
[4]
  GI50: 277 nM
  TGI: 9750 nM
[5]
  GI50: 250 nM
  TGI: 1330 nM
[6]
  GI50: 374 nM
  TGI: 17200 nM
[7]
  GI50: 173 nM
  TGI: > 100000 nM
[8]
  GI50: 1690 nM
  TGI: 4860 nM
[9]
  GI50: 365 nM
  TGI: 13700 nM
[10]
  GI50: 1210 nM
  TGI: 26300 nM
[11]
  GI50: 488 nM
  TGI: 9650 nM
[12]
  GI50: 118 nM
  TGI: 11100 nM
[13]
  GI50: 129 nM
  TGI: 9510 nM
[14]
  GI50: 52.9 nM
  TGI: 617 nM
[15]
  GI50: 519 nM
  TGI: 11600 nM
[16]
  GI50: 645 nM
  TGI: 11600 nM
[17]
  GI50: 616 nM
  TGI: 24700 nM
[18]
  GI50: 148 nM
  TGI: 6900 nM
[19]
  GI50: 221 nM
  TGI: 9100 nM
[20]
  GI50: 109 nM
  TGI: > 100000 nM
[21]
  GI50: 793 nM
  TGI: 18700 nM
[22]
  GI50: 309 nM
  TGI: 1430 nM
[23]
  GI50: 235 nM
  TGI: 14600 nM
[24]
  GI50: 564 nM
  TGI: 24900 nM
[25]
  GI50: 110 nM
  TGI: 5870 nM
[26]
  GI50: 545 nM
  TGI: 4000 nM
[27]
  GI50: 243 nM
  TGI: 30200 nM
[28]
  GI50: 579 nM
  TGI: 6270 nM
[29]
  GI50: 254 nM
  TGI: 12000 nM
[30]
  GI50: 340 nM
  TGI: 2250 nM
[31]
  GI50: 78.5 nM
  TGI: 262 nM
[32]
  GI50: 118 nM
  TGI: 2090 nM
[33]
  GI50: 367 nM
  TGI: 15700 nM
[34]
  GI50: 783 nM
  TGI: 30200 nM
[35]
  GI50: 439 nM
  TGI: 24600 nM
[36]
  GI50: 204 nM
  TGI: 2190 nM
[37]
  GI50: 304 nM
  TGI: 12300 nM
[38]
  GI50: 149 nM
  TGI: > 20900 nM
[39]
  GI50: 222 nM
  TGI: 487 nM
[40]
  GI50: 1580 nM
  TGI: > 64900 nM
[41]
  GI50: 41.4 nM
  TGI: 2330 nM
[42]
  GI50: 87.8 nM
  TGI: 543 nM
[43]
  GI50: 451 nM
  TGI: 16200 nM
[44]
  GI50: 847 nM
  TGI: > 37400 nM
[45]
  GI50: 272 nM
  TGI: 1230 nM
[46]
  GI50: 993 nM
  TGI: 15300 nM
[47]
  GI50: 227 nM
  TGI: 6330 nM
[48]
  GI50: 439 nM
  TGI: 16700 nM
[49]
  GI50: 630 nM
  TGI: 5360 nM
[50]
  GI50: 99.2 nM
  TGI: > 38800 nM
[51]
  GI50: 182 nM
  TGI: 14900 nM
[52]
  GI50: 2460 nM
  TGI: 27300 nM
[53]
  GI50: 1930 nM
  TGI: 23800 nM
[54]
  GI50: 312 nM
  TGI: 5790 nM
[55]
  GI50: 344 nM
  TGI: 12900 nM
[56]
  GI50: 139 nM
  TGI: 6990 nM
[57]
  GI50: 275 nM
  TGI: 17600 nM
